Test results as given in patent publication US20060235076A1, “Medicinal composition for treating infection with drug-resistant staphylococcus aureus” (priority 2003, published 2006).

Tested on: MRSA
Assay: Potentiating effect of galloyl quinic acid derivatives for the antibacterial activity of oxacillin (agar plate dilution method, MIC)
Assay type: cell-based, Staphylococcus aureus
Protocol: According to the agar plate dilution method defined by Japan Society of Chemotherapy, MIC (Minimum inhibitory concentration) was determined. CAMHA was prepared by adding 50 mg/l of Ca-ion, 25 mg/l of Mg-ion, and 2% of NaCl to Mueller-Hinton II Agar (MHA), and it was used as a medium for use in the measurement of sensitivity. The bacterial liquid was incubated at 37° C. overnight and diluted to 10^6 CFU/ml with saline.
It was confirmed that the known substances shown below were contained in “Tara” and their MICs were determined as described in example 2 with respect to the effects of the combination use with oxacillin

**Q.** Which results are given for `O=C(OC1CC(O)(C(=O)O)CC(OC(=O)c2cc(O)c(O)c(O)c2)C1OC(=O)c1cc(O)c(O)c(O)c1)c1cc(O)c(O)c(O)c1` (stereo not drawn) [compound 3]?
**A.** Oxacillin MIC (ATCC 6538, with 12.5 μg/ml of compound): <0.5 µg/mL; Oxacillin MIC (ATCC 6538, with 25 μg/ml of compound): <0.5 µg/mL; Oxacillin MIC (ATCC 6538, with 50 μg/ml of compound): <0.5 µg/mL; Oxacillin MIC (MRSA 1, with 12.5 μg/ml of compound): 128 µg/mL; Oxacillin MIC (MRSA 1, with 25 μg/ml of compound): 32 µg/mL; Oxacillin MIC (MRSA 1, with 50 μg/ml of compound): 64 µg/mL; Oxacillin MIC (MRSA 2, with 12.5 μg/ml of compound): 2 µg/mL; Oxacillin MIC (MRSA 2, with 25 μg/ml of compound): <0.5 µg/mL; Oxacillin MIC (MRSA 2, with 50 μg/ml of compound): <0.5 µg/mL; Oxacillin MIC (MRSA 3, with 12.5 μg/ml of compound): 4 µg/mL; Oxacillin MIC (MRSA 3, with 25 μg/ml of compound): <0.5 µg/mL; Oxacillin MIC (MRSA 3, with 50 μg/ml of compound): 1 µg/mL; Oxacillin MIC (MRSA 4, with 12.5 μg/ml of compound): 32 µg/mL; Oxacillin MIC (MRSA 4, with 25 μg/ml of compound): 4 µg/mL; Oxacillin MIC (MRSA 4, with 50 μg/ml of compound): 2 µg/mL; Oxacillin MIC (MRSA 5, with 12.5 μg/ml of compound): 64 µg/mL; Oxacillin MIC (MRSA 5, with 25 μg/ml of compound): 8 µg/mL; Oxacillin MIC (MRSA 5, with 50 μg/ml of compound): 8 µg/mL; Oxacillin MIC (MRSA 6, with 12.5 μg/ml of compound): 4 µg/mL; Oxacillin MIC (MRSA 6, with 25 μg/ml of compound): 2 µg/mL; Oxacillin MIC (MRSA 6, with 50 μg/ml of compound): 4 µg/mL; Oxacillin MIC (MRSA 7, with 12.5 μg/ml of compound): 16 µg/mL; Oxacillin MIC (MRSA 7, with 25 μg/ml of compound): 4 µg/mL; Oxacillin MIC (MRSA 7, with 50 μg/ml of compound): 2 µg/mL; Oxacillin MIC (MRSA 8, with 12.5 μg/ml of compound): 8 µg/mL; Oxacillin MIC (MRSA 8, with 25 μg/ml of compound): 4 µg/mL; Oxacillin MIC (MRSA 8, with 50 μg/ml of compound): 8 µg/mL; Oxacillin MIC (MRSA 9, with 12.5 μg/ml of compound): 8 µg/mL; Oxacillin MIC (MRSA 9, with 25 μg/ml of compound): 2 µg/mL; Oxacillin MIC (MRSA 9, with 50 μg/ml of compound): 2 µg/mL; Oxacillin MIC (MRSA 10, with 12.5 μg/ml of compound): 4 µg/mL; Oxacillin MIC (MRSA 10, with 25 μg/ml of compound): 2 µg/mL; Oxacillin MIC (MRSA 10, with 50 μg/ml of compound): 4 µg/mL; Oxacillin MIC (MRSA 12, with 12.5 μg/ml of compound): 8 µg/mL; Oxacillin MIC (MRSA 12, with 25 μg/ml of compound): 4 µg/mL; Oxacillin MIC (MRSA 12, with 50 μg/ml of compound): 4 µg/mL; Oxacillin MIC (MRSA 16, with 12.5 μg/ml of compound): 32 µg/mL; Oxacillin MIC (MRSA 16, with 25 μg/ml of compound): 8 µg/mL; Oxacillin MIC (MRSA 16, with 50 μg/ml of compound): 8 µg/mL; Oxacillin MIC (MRSA 17, with 12.5 μg/ml of compound): 4 µg/mL; Oxacillin MIC (MRSA 17, with 25 μg/ml of compound): 8 µg/mL; Oxacillin MIC (MRSA 17, with 50 μg/ml of compound): 4 µg/mL; Oxacillin MIC (MRSA 18, with 12.5 μg/ml of compound): 32 µg/mL; Oxacillin MIC (MRSA 18, with 25 μg/ml of compound): 4 µg/mL; Oxacillin MIC (MRSA 18, with 50 μg/ml of compound): 4 µg/mL; Oxacillin MIC (MRSA 20, with 12.5 μg/ml of compound): <0.5 µg/mL; Oxacillin MIC (MRSA 20, with 25 μg/ml of compound): <0.5 µg/mL; Oxacillin MIC (MRSA 20, with 50 μg/ml of compound): <0.5 µg/mL; Oxacillin MIC (MRSA 21, with 12.5 μg/ml of compound): 1 µg/mL; Oxacillin MIC (MRSA 21, with 25 μg/ml of compound): <0.5 µg/mL; Oxacillin MIC (MRSA 21, with 50 μg/ml of compound): <0.5 µg/mL; Oxacillin MIC (MRSA 22, with 12.5 μg/ml of compound): 1 µg/mL; Oxacillin MIC (MRSA 22, with 25 μg/ml of compound): <0.5 µg/mL; Oxacillin MIC (MRSA 22, with 50 μg/ml of compound): 1 µg/mL; Oxacillin MIC (MRSA COL, with 12.5 μg/ml of compound): 8 µg/mL; Oxacillin MIC (MRSA COL, with 25 μg/ml of compound): 4 µg/mL; Oxacillin MIC (MRSA COL, with 50 μg/ml of compound): 4 µg/mL; Oxacillin MIC (MSSA 1003, with 12.5 μg/ml of compound): <0.5 µg/mL; Oxacillin MIC (MSSA 1003, with 25 μg/ml of compound): <0.5 µg/mL; Oxacillin MIC (MSSA 1003, with 50 μg/ml of compound): <0.5 µg/mL; Oxacillin MIC (MSSA 1010, with 12.5 μg/ml of compound): <0.5 µg/mL; Oxacillin MIC (MSSA 1010, with 25 μg/ml of compound): <0.5 µg/mL; Oxacillin MIC (MSSA 1010, with 50 μg/ml of compound): <0.5 µg/mL; Oxacillin MIC (MSSA 1032, with 12.5 μg/ml of compound): <0.5 µg/mL; Oxacillin MIC (MSSA 1032, with 25 μg/ml of compound): <0.5 µg/mL; Oxacillin MIC (MSSA 1032, with 50 μg/ml of compound): <0.5 µg/mL; Oxacillin MIC (RN4220, with 12.5 μg/ml of compound): <0.5 µg/mL; Oxacillin MIC (RN4220, with 25 μg/ml of compound): <0.5 µg/mL; Oxacillin MIC (RN4220, with 50 μg/ml of compound): <0.5 µg/mL
